Laboratory results from US9637488B2, “Heterocyclic compounds as inhibitors of class I PI3KS” (priority 2015, dated 2017).

Assays:
Assay type in all cases: biochemical
PI3Kγ (p110γ) = PI3Kγ (p110γ) (Homo sapiens (Human), UniProt P48736); assay: cell-free PI3K HTRF assay, PI3Kγ; settings: ratio of IC50 against PI3Kγ related to PI3Kδ; 10-dose, 3-fold serial dilution starting at 10 μM
Experimental: (§1) Exemplary compounds of the invention were tested for inhibitory activity and potency against class I PI3Ks (p110α/p85α, p110β/p85α, p110δ/p85α and p110γ) using a cell-free based PI3K HTRF assay. This assay was used to detect the formation of the product 3,4,5-inositol triphosphate molecule (PIP3) by displacement of biotin-PIP3 from an energy transfer complex consisting of Europium labeled anti-GST monoclonal antibody, a GST-tagged pleckstrin homology (PH) domain, biotinylated PIP3 and Streptavidin-Allophycocyanin (APC). Excitation of Europium in the complex results in an energy transfer to the APC and a fluorescent emission at 665 nm. The PIP3 product formed by human PI 3-Kinase activity displaces biotin-PIP3 from the complex resulting in a loss of energy transfer and thus a decrease in signal.
(§2) Human class I PI3K isoforms were co-expressed in a Baculovirus infected cell expression system. The PI3K isoforms were assayed in the presence of HEPES (50 mM, pH 7.0), NaN3 (0.02%), BSA (0.01%), orthovanadate (0.1 mM), and DMSO (1%). The exemplary compounds dissolved in DMSO were delivered into the kinase reaction mixture by Acoustic technology (Echo550; nanolitter range), and were pre-incubated for 10 min at room temperature before adding ATP (10 μM) to initiate the reaction. After 30 min at 30° C., the reactions were quenched with a stop solution, incubated overnight with a detection mixture before measuring HTRF (Ex: 320 nm; Em: 615/665 nm). The emission ratio is converted into μM PIP3 production based on PIP3 standard curves, and the nonlinear regression to obtain the standard curve and IC50 values are performed using Graphpad Prism software.
(§3) The assays were performed at Reaction Biology Corporation, One Great Valley Parkway, Suite 2, Malvern, Pa. 19355, USA.
(§4) Exemplary compounds of the invention selected were further tested their inhibitory activity or potency against PI3Kα, PI3Kβ, and PI3Kγ in 10-dose IC50 mode with 3-fold serial dilution starting at 10 μM. […] Table 5 below illustrates the selectivity of the exemplary compounds using the ratios of the IC50 values of the compounds against PI3Kα, PI3Kβ, and PI3Kγ related to PI3Kδ. […] Such unexpected selectivity against PI3Kδ and/or PI3Kγ is attributed to the unusual overall shape of the molecules of formula (I) and (II), and the optimal selection of R1, R2, R3, R4, X, and Y defined in formula (I) and (II) in order to bind favorably in the ATP-binding pocket of PI3Kδ and/or PI3Kγ versus other class I isozymes.

PI3Kδ (p110δ/p85α) = PI3Kδ (p110δ/p85α) (Homo sapiens (Human), UniProt O00329); assay: cell-free PI3K HTRF assay, PI3Kδ; settings: for IC50: 10-dose IC50 mode, 3-fold serial dilution starting at 1 μM, ATP 10 μM, read-out: IC50 value for the inhibition of PI3Kδ
PI3Kβ (p110β/p85α) = PI3Kβ (p110β/p85α) (Homo sapiens (Human), UniProt P42338); assay: cell-free PI3K HTRF assay, PI3Kβ; settings: ratio of IC50 against PI3Kβ related to PI3Kδ; 10-dose, 3-fold serial dilution starting at 10 μM
Experimental: as §1, §2, §3, §4

PI3Kα (p110α/p85α) = PI3Kα (p110α/p85α) (Homo sapiens (Human), UniProt P42336); assay: cell-free PI3K HTRF assay, PI3Kα; settings: ratio of IC50 against PI3Kα related to PI3Kδ; 10-dose, 3-fold serial dilution starting at 10 μM
Experimental: as §1, §2, §3, §4

Chain of PI3Kβ (p110β/p85α) (P42338 whole entry): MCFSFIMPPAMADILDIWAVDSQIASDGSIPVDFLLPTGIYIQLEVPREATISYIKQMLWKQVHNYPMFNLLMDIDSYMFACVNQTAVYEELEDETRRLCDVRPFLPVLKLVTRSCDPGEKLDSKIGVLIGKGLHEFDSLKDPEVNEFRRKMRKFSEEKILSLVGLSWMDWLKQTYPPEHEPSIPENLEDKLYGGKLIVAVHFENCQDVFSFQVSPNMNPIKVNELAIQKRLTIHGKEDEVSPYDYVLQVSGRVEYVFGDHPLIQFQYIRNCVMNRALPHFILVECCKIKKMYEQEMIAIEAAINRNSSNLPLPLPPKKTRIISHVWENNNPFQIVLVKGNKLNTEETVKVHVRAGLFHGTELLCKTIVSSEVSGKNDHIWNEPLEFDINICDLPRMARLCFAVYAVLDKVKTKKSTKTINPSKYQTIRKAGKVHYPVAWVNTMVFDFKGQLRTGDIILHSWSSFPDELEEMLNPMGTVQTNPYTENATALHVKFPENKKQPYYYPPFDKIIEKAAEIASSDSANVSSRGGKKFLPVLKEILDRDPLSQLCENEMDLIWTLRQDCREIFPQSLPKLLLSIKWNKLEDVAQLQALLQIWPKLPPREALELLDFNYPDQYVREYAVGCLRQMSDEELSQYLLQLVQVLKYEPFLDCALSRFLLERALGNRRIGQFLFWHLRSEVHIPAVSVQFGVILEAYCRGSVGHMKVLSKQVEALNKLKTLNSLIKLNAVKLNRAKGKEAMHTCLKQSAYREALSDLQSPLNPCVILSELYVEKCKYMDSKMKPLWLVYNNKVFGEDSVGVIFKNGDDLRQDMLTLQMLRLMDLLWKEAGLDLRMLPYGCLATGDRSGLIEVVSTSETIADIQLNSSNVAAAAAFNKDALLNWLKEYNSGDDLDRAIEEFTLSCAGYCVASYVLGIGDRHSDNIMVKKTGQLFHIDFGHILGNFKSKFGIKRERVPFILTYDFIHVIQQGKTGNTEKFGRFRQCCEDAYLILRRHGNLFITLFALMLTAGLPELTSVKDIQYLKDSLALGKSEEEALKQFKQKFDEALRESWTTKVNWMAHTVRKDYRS
Chain of PI3Kβ (p110β/p85α) (P27986 whole entry partner): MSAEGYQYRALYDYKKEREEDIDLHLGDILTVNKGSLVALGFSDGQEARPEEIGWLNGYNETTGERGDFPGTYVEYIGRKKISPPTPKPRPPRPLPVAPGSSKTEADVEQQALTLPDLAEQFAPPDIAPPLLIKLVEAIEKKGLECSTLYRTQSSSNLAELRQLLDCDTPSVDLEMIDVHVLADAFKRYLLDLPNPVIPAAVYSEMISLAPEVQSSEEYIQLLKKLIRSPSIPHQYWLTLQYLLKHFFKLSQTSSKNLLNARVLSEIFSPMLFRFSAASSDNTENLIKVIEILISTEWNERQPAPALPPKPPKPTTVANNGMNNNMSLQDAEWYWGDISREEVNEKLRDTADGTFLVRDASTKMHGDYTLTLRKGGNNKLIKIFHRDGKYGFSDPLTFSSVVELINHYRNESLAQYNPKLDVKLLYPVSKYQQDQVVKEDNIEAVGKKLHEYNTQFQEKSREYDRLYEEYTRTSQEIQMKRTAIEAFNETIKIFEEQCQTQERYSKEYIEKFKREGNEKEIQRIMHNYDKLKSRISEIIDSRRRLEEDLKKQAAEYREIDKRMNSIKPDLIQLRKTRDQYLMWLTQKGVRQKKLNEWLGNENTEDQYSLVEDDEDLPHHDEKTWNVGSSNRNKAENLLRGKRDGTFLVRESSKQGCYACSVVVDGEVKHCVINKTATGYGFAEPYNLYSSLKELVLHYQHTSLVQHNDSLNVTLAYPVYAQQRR
Chain of PI3Kδ (p110δ/p85α) (O00329 whole entry): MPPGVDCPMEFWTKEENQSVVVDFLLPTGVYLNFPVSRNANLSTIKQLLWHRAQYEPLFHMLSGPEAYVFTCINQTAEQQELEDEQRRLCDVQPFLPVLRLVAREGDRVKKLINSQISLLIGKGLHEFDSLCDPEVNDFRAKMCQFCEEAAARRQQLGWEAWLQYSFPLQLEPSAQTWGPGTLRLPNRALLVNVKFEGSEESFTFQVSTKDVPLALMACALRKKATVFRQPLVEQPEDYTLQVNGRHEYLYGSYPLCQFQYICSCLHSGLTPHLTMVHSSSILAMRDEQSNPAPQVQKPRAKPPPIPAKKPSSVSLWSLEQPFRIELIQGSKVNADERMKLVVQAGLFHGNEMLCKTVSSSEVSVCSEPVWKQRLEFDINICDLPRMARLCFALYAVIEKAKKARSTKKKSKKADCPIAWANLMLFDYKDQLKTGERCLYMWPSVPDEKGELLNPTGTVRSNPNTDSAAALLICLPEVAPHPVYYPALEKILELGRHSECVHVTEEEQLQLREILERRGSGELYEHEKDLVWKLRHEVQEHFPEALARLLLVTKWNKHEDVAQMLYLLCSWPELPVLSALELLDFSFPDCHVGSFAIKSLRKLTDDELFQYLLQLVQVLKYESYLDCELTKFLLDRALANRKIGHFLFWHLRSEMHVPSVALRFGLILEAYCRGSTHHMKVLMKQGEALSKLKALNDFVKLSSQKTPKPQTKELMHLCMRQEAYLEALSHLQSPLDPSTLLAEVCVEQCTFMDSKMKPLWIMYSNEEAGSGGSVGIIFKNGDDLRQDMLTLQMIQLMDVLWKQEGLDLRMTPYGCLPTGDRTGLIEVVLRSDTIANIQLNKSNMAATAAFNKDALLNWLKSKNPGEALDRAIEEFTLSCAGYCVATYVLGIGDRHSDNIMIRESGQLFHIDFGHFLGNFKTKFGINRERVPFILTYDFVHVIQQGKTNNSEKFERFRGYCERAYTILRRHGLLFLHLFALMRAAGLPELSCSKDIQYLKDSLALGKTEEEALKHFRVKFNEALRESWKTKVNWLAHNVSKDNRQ
Chain of PI3Kδ (p110δ/p85α) (P27986 whole entry partner): as the sequence (P27986 whole entry partner) above
Chain of PI3Kα (p110α/p85α) (P42336 whole entry): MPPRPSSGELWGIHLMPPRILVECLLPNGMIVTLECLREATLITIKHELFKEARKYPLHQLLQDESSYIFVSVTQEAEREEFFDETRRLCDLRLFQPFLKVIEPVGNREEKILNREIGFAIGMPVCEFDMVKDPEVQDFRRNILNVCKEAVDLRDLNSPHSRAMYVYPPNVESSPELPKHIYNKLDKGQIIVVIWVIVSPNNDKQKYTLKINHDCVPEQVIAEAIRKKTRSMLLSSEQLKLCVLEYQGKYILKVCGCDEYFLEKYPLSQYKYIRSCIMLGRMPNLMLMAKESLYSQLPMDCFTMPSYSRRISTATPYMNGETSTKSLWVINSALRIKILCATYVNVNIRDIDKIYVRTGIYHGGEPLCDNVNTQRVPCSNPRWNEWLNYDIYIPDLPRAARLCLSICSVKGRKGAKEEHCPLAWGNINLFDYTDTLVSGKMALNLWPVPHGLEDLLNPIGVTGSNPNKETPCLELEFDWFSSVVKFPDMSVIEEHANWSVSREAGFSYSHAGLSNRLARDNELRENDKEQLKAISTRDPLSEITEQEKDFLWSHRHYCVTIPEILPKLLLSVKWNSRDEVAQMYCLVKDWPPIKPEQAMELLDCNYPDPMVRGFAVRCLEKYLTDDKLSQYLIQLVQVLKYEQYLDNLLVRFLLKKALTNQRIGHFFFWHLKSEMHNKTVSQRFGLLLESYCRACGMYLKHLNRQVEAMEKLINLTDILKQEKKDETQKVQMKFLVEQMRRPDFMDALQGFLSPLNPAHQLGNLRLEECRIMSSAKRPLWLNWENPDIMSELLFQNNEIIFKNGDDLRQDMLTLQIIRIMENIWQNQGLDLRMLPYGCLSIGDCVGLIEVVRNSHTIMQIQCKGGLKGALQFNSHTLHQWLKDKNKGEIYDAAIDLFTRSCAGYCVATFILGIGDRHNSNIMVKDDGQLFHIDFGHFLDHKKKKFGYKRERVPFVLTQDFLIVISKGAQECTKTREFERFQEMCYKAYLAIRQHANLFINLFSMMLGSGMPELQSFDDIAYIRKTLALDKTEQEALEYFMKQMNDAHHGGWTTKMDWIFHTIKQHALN
Chain of PI3Kα (p110α/p85α) (P27986 whole entry partner): as the sequence (P27986 whole entry partner) above
Chain of PI3Kγ (p110γ) (P48736 whole entry): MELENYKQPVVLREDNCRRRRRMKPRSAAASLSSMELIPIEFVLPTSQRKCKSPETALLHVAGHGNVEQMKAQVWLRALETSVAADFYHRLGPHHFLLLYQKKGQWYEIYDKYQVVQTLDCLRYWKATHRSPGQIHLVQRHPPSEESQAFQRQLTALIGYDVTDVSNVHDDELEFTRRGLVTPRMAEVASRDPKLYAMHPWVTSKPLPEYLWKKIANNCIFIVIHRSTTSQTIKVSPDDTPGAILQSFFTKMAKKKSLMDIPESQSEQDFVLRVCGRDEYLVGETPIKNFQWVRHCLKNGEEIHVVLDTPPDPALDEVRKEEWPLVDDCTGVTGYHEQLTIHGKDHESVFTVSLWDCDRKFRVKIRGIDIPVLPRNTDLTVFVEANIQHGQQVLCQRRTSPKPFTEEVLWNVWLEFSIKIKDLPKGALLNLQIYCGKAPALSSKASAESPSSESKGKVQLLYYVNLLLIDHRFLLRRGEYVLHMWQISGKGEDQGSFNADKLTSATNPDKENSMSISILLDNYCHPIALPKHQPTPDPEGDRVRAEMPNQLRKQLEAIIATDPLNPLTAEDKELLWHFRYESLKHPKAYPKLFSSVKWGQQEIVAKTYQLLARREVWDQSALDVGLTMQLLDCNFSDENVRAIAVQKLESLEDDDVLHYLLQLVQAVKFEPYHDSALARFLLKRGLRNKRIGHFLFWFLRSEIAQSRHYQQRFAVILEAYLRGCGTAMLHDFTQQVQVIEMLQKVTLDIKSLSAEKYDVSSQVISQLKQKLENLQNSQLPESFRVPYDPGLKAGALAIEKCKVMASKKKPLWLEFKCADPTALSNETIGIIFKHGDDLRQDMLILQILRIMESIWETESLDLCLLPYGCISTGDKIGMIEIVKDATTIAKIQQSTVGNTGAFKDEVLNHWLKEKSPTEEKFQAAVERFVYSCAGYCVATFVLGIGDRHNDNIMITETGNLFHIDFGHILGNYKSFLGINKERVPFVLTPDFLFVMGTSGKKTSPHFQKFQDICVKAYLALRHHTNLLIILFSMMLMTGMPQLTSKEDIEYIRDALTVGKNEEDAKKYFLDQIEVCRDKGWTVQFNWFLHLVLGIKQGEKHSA

Compound | Ratio (γ/δ) (PI3Kγ (p110γ)) | IC50 (PI3Kδ (p110δ/p85α)) | Ratio (β/δ) (PI3Kβ (p110β/p85α)) | Ratio (α/δ) (PI3Kα (p110α/p85α)) | potency or inhibition against PI3Kδ (in words) (PI3Kδ (p110δ/p85α); qualitative statement)
Fc1ccc2cc(C3CCCN3c3ncnc4[nH]cnc34)c(-c3cccnc3)nc2c1 (centres unmarked) [Compound 1, 3-(1-(9H-purin-6-yl)pyrrolidin-2-yl)-7-fluoro-2-(pyridin-3-yl)quinoline] | 39 | 27 nM | 267 | – | –
N#Cc1c(N)ncnc1N1CCCC1c1cc2ccc(F)cc2nc1N1CCOCC1 (centres unmarked) [Compound 7, 4-amino-6-(2-(7-fluoro-2-morpholinoquinolin-3-yl)pyrrolidin-1-yl)pyrimidine-5-carbonitrile] | 111 | 1.6 nM | 344 | 1000 | –
Fc1ccc2cc(C3CCCN3c3ncnc4[nH]cnc34)c(-c3ccccn3)nc2c1 (centres unmarked) [Compound 10, 3-(1-(9H-purin-6-yl)pyrrolidin-2-yl)-7-fluoro-2-(pyridin-2-yl)quinoline] | 53 | 13 nM | 519 | >781 | –
Cn1c(=O)n(C)c2c(N3CCCC3c3cc4ccc(F)cc4nc3-c3ccccn3)ncnc21 (centres unmarked) [Compound 13] | – | > 1000 nM | – | – | week potency or inhibition
Fc1ccc2cc(C3CCCN3c3ncnc4[nH]cnc34)c(-c3ccncc3)nc2c1 (centres unmarked) [Compound 14] | 3.3 | 521 nM | 4.2 | >19 | –
N#Cc1c(N)ncnc1N1CCCC1c1cc2ccc(F)cc2nc1-c1ccncc1 (centres unmarked) [Compound 15] | 2.2 | 62 nM | 11 | 138 | –
Fc1ccc2cc(C3CCCN3c3ncnc4[nH]cnc34)c(N3CCCCC3)nc2c1 (centres unmarked) [Compound 16] | 145 | 2.2 nM | 1153 | 3360 | –
Nc1nc(N2CCCC2c2cc3ccc(F)cc3nc2N2CCCCC2)c2nc[nH]c2n1 (centres unmarked) [Compound 17] | 1.1 | 0.9 nM | 1714 | 5958 | –
N#Cc1c(N)ncnc1N1CCCC1c1cc2ccc(F)cc2nc1N1CCCCC1 (centres unmarked) [Compound 18] | 955 | 0.1 nM | 14712 | >100000 | –
Fc1ccc2cc(C3CCCN3c3ncnc4[nH]cnc34)c(N3CCOCC3)nc2c1 (centres unmarked) [Compound 20] | 18.8 | 19 nM | 190 | 528 | –
Fc1ccc2cc(C3CCCN3c3ncnc4[nH]cnc34)c(-c3ccccc3)nc2c1 (centres unmarked) [Compound 21] | 67.5 | 0.7 nM | 3550 | 12818 | –
Fc1cccc(-c2nc3cc(F)ccc3cc2C2CCCN2c2ncnc3[nH]cnc23)c1 (centres unmarked) [Compound 22] | 139 | 0.5 nM | 8946 | 16451 | –
COc1cccc(-c2nc3cc(F)ccc3cc2C2CCCN2c2ncnc3[nH]cnc23)c1 (centres unmarked) [Compound 23] | 50 | 11 nM | 396 | >926 | –
Fc1ccc2cc(C3CCCN3c3ncnc4[nH]cnc34)c(-c3ccccc3F)nc2c1 (centres unmarked) [Compound 24] | 22 | 16 nM | 393 | >613 | –
